Assay [1] concerns the target T1, WRN helicase (His-WRN527-072) (Homo sapiens, UniProt Q14191).
T1 construct: in-house produced His-WRN527-072 was used; His (N); made in house
Briefly: WRN Helicase Assay (fluorescent forked DNA). In kind it is biochemical. To be noted: 30 min pre-incubation, 60 min reaction at room temperature. Here is the method: To assess the inhibition properties of the invented compounds on WRN helicase activity, a fluorescent assay using forked DNA was set up. In the helicase assay, in-house produced His-WRN527-072 was used. […] 2.5-fold serial dilution of test compounds were prepared for 7 gradient points with DMSO, and then 1.5 μl of each concentration were added to 48.5 μl of assay buffer (25 mM Tris-HCl (pH 8.0), 50 mM NaCl, 2 mM MgCl2, 1 mM DTT, 0.0500 Tween-20, and 2.5 μg/ml BSA) for further dilution. […] Each concentration of the compounds was added as triplicate in the plate. Controls were included in the test to validate the assay. […] Forked DNA and ATP were diluted into 300 nM and 6 mM, respectively, with assay buffer. To initiate the reaction, 5 μl of the dsDNA and ATP solution were added to the assay plate. After 60 minutes room temperature incubation, the plate was transferred to Victor Nivo multimode plate reader (Perkin Elmer, Waltham, MA) and the fluorescence outputs were monitored. GraphPad Prism 9 (GraphPad Software, San Diego, CA) was used to carry out the dose-response curves, deriving IC50s.

A further assay has as its target T2, WRN ATPase (Homo sapiens, UniProt Q14191).
T2 construct: in-house produced His-WRN527-072 was used; His (N); made in house
Briefly: WRN ATPase Assay (ADP-Glo). The assay is classed as biochemical. To be noted: DNA dependent WRN ATPase activity. How it is done:
WRN ATPase Assay To evaluate the inhibition properties of the invented compounds on DNA dependent WRN ATPase activity, an ATPase assay using ADP-Glo assay kit (Promega, Madison, WI) was established. In the ATPase assay, the same WRN protein and DNA substrate as described in helicase assay were used. The serial dilution of the compounds in DMSO was same as helicase assay. […] All the test wells were set as triplicate. Afterwards, 2.5 μl of assay buffer containing 400 nM DNA substrate and 4 mM ATP were added to each well and incubated for 60 minutes. The protein-free control (maximal inhibition) and no-compound control (no inhibition) were included in the test. To stop the reaction and deplete the excessive ATP, 10 μl of the ADP-Glo™ Reagent from the assay kit were added and incubated for 40 minutes. Then, 20 μl of the ATP detection reagent was added. After 30 minutes incubation, the luminescence was measured using Victor Nivo multimode plate reader (Perkin Elmer, Waltham, MA). Dose-response curves, spanning IC50s, were generated by GraphPad Prism 9 (GraphPad Software, San Diego, CA).
(In general: In ADP-Glo the light output rises with the ADP produced.)

Another assay deals with SW48. Briefly: SW48 cell assay. In kind it is cell-based. To be noted: Homo sapiens.

T1 sequence (Q14191 527-1072 limits assumed): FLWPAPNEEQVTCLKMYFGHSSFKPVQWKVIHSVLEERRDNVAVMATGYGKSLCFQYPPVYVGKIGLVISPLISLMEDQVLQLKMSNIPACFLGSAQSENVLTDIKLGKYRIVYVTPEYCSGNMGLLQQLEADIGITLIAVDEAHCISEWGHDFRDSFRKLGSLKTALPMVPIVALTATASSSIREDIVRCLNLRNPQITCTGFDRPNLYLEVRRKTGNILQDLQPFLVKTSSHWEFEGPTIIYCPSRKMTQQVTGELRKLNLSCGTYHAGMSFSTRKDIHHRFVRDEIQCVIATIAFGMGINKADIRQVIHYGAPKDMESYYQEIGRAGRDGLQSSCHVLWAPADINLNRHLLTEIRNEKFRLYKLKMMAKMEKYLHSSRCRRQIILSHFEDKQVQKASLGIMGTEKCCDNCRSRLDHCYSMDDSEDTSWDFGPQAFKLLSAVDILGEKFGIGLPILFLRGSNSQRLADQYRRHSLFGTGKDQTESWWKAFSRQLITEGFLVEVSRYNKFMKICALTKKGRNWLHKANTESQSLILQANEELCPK
T2 sequence (Q14191 527-1072 limits assumed): as above

For orientation: IC50 means the concentration at which inhibition is half-maximal. A low value points to inhibition by little substance. For the molecule `CCc1c(N2CC3CC(C(=O)c4ncnc(C)c4O)C(C2)N3)c(=O)n2nc(C3=CCOCC3)nc2n1CC(=O)Nc1ccc(C(F)(F)F)cc1Cl` (centres unmarked) [Compound 186], the IC50 in assay [1] came to 2.7 nM; against WRN ATPase, 13 nM; with SW48 it was 716 nM.
Turning to `CCc1c(N2CCN(C(=O)c3ncnc(C)c3O)CC2)c(=O)n2nc(C3C4COCC43)nc2n1CC(=O)Nc1ccc(C(F)(F)F)cc1Cl` (centres unmarked) [Compound 192, 2-(2-(3-oxabicyclo[3.1.0]hexan-6-yl)-5-ethyl-6-(4-(5-hydroxy-6-methylpyrimidine-4-carbonyl)piperazin-1-yl)-7-oxo-[1,2,4]triazolo[1,5-a]pyrimidin-4(7H)-yl)-N-(2-chloro-4-(trifluoromethyl)phenyl)acetamide], the IC50 in assay [1] was found to be 8.4 nM; in the assay on SW48 it was 4180 nM.
The matching figures for `CCc1c(N2CC3CCC(C2)N3C(=O)c2ncccc2O)c(=O)n2nc(-c3cnn(C)c3)nc2n1CC(=O)Nc1ccc(C(F)(F)F)cc1C` [Compound 204]: 7.1 nM and 1790 nM.
As to `CCc1c(N2CC3CCC(C2)N3C(=O)c2ncccc2O)c(=O)n2nc(C3=CCOCC3)nc2n1CC(=O)Nc1ccc(OC(F)(F)F)cc1` [Compound 200], the values for the IC50 (in assay [1]; with SW48) were 4.4 nM and 7240 nM, respectively.
Regarding `CCc1c(N2CC3CCC(C2)N3C(=O)c2nccc(Cl)c2O)c(=O)n2nc(C3=CCOCC3)nc2n1CC(=O)Nc1ccc(C(F)(F)F)nc1Cl` [Compound 201], the IC50 in assay [1] was 7.3 nM; in the assay with SW48, 802 nM.
